Laboratory results taken from patent EP0511003B1, “Superactive GRF analogs” (ELI LILLY AND COMPANY, priority 1991, dated 1992).
Marks after values point to notes of the source that are not given here.

What was measured:
[1] = target: T1, rat primary pituitary cells (Rattus norvegicus, UniProt Q02644); assay: Growth hormone release in vitro from rat primary pituitary cells; assay type: cell-based; conditions: growth hormone released into media after exposure to 7 doses of secretagogue for 3h
T1 sequence (Q02644 23-464): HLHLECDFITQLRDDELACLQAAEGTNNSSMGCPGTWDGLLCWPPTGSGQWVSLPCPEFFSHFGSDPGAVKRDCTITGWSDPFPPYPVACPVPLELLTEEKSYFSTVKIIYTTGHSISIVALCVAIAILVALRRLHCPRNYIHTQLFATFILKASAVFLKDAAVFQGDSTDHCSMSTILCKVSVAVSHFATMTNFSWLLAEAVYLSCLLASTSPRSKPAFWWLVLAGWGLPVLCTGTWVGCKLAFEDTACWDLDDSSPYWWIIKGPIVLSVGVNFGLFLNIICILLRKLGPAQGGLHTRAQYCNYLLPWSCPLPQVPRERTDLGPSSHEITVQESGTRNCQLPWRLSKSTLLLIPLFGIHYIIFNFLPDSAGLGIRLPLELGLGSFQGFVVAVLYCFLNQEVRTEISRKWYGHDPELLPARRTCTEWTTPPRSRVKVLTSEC
Method: The polypeptide compounds of the invention may be assayed in numerous systems. One in vivo assay is carried out in sodium pentobarbital-anesthetized rats. Wehrenberg et al., Biochem. Biophys. Res. Commun. 109:382 (1982). Growth hormone release is measured in vitro with rat anterior pituitary cells. Heiman et al., Endocrinol. 116:410 (1985).

barrows = assay: In vivo effects in barrows injected subcutaneously or intravenously 3 times daily (urinary urea nitrogen excretion and serum parameters); conditions: for GH: serum Growth Hormone level; for GH / TRIG. / BUN / FFA / GLUCOSE / INSULIN: 12th day of treatment; for GH / TRIG. / BUN / FFA / GLUCOSE / INSULIN / UREA: means; for TRIG.: serum triglycerides; for BUN / FFA / GLUCOSE / INSULIN: serum; for UREA: urinary urea nitrogen excretion, injected 3 times daily
Method: A carrier solution was prepared by dissolving 1.38 g of Na2HP04 and 1.0g PSA with pyrogen free H2O to a final volume of 1 litre, pH approximately 5.1. 27.4 mg The p-methyl hippuroyl pGRF (2-76)OH prepared in substantial accordance with the teaching of Example 4.B. above was added to 64 ml of the carrier solution to achieve a final concentration of […].
Twenty crossbred barrows, averaging approximately 72 kg, with an indwelling catheter which had been surgically inserted into the femoral vein, were used to determine the effects of p-methyl hippuroyl pGRF (2-76)OH. A formulation of the p-methyl hippuroyl pGRF (2-76)OH was prepared in substantial accordance with the teaching of Example 11 above and injected 3 times daily at a rate of 10.0 µg/kg/inj., either intravenously (I.V.) or subcutaneously (S.Q.). The barrows were fed 2000 g of an 18.5% crude protein corn-soy diet per day, equally divided between 2 feedings at 8:00 a.m. and 4:00 p.m. The barrows were injected at 8:00 a.m., 4:00 p.m., and 12:00 p.m. Urinary urea nitrogen excretion data were collected during 1 5day control period, 4 3-day treatment periods, and 2 3-day periods after treatments were stopped. Thirty blood serum samples were collected during a 24-hour period on the 12th day of treatment. The serum samples were assayed for GH, BUN, glucose, insulin, FFA, and triglycerides.

[2] = Table 1, bGRF analogs, EC50 is the calculated median effective dose
[3] = injected 3 times daily at a rate of 30.0 µg/kg/d, versus control barrows

Q: p-Methyl Hippuroyl bGRF(2-77)OH was tested. Which EC50 [1, 2] did it give?
A: 0.05 nM

Q: For p-Chloro Hippuroyl bGRF(2-77)OH, which EC50 [1, 2] is on record?
A: 0.19 nM

Q: With n-Phenylmalonamindoyl bGRF(2-77)0H as the substance, how does the EC50 [1, 2] read?
A: 0.19 nM

Q: Which EC50 [1, 2] does the source give for p-Fluoro Hippuroyl bGRF(2-77)0H here?
A: 0.14 nM

Q: Which EC50 [1, 2] does the source give for p-Hydroxy Hippuroyl bGRF(2-77)0H here?
A: 0.33 nM

Q: With p-Nitro Hippuroyl bGRF (2-77)0H as the substance, how does the EC50 [1, 2] read?
A: 0.51 nM

Q: With “des Tyr-1 pGRF(2-76)0H [reference compound]” as the substance, how does the EC50 ([1]; Table 2, pGRF(2-76)OH analogs) read?
A: 95 nM

Q: For Hippuroyl-1 pGRF(2-76)OH, which EC50 ([1]; Table 2, pGRF(2-76)OH analogs) is on record?
A: 0.28 nM

Q: With “p-Methyl Phenylmalonamindoyl pGRF(2-76)OH” as the substance, how does the EC50 ([1]; Table 2, pGRF(2-76)OH analogs) read?
A: 0.06 nM

Q: How did the EC50 [1, 2] turn out when bGRF (1-77)0H [reference compound] was run?
A: 0.59 nM

Q: With p-Methyl Hippuroyl pGRF(2-76)OH as the substance, how does the “increase in serum GH levels” value (barrows; [3]) read?
A: 4 fold

Q: What about the “reduction in serum BUN levels” value (barrows; [3]) of the same substance?
A: 54%

Q: What about the “reduction in urinary urea nitrogen excretion” value (barrows; [3]) of the same substance?
A: 41%

Q: And the GH (barrows; IV 30 µg/kg/d)?
A: 9.9^b ng/ml

Q: And the GH (barrows; SQ 30 µg/kg/d)?
A: 8.9^b ng/ml

Q: What about the TRIG. (barrows; IV 30 µg/kg/d) of the same substance?
A: 35.3^b mg/dla

Q: And the TRIG. (barrows; SQ 30 µg/kg/d)?
A: 32.5^ab mg/dla

Q: What about the BUN (barrows; IV 30 µg/kg/d) of the same substance?
A: 7.0^b mg/dl

Q: What about the FFA (barrows; IV 30 µg/kg/d) of the same substance?
A: 97.3^b µM/la

Q: And the GLUCOSE (barrows; IV 30 µg/kg/d)?
A: 132.7^b mg/dl

Q: And the INSULIN (barrows; IV 30 µg/kg/d)?
A: 76.8^b µu/ml

Q: What about the BUN (barrows; SQ 30 µg/kg/d) of the same substance?
A: 7.5^b mg/dl

Q: What about the FFA (barrows; SQ 30 µg/kg/d) of the same substance?
A: 97.5^b µM/la

Q: And the GLUCOSE (barrows; SQ 30 µg/kg/d)?
A: 147.3^b mg/dl

Q: And the INSULIN (barrows; SQ 30 µg/kg/d)?
A: 112.9^C µu/ml

Q: What about the “depression in urinary urea nitrogen excretion prolonged after treatments were stopped” value (barrows; subcutaneously injected barrows) of the same substance?
A: 2 to 3 days

Q: What about the UREA (barrows; IV 30 µg/kg/d) of the same substance?
A: 16.3^b g/day

Q: And the UREA (barrows; SQ 30 µg/kg/d)?
A: 16.4^b g/day

Q: And the EC50 ([1]; Table 2, pGRF(2-76)OH analogs)?
A: 0.06 nM

Q: And the EC50 ([1]; Table 3, p-Methyl Hippuroyl-1 pGRF analogs of different length)?
A: 0.06 nM

Q: How did the EC50 [1, 2] turn out when Hippuroyl-1 bGRF(2-77)0H was run?
A: 0.86 nM
